How the values were obtained:
[1] = test system: HBV AD38 viral particles in HepG2 cell line overexpressing NTCP; experiment: HBV DNA Quantification Assay; format: cell-based; settings: Hepatitis B virus, HepG2, 120 h, HBV-infected HepG2-NTCP cells, 5 days incubation, HBV DNA in culture supernatant (QuantiGene 2.0); geometric mean of a minimum of four determinations
Description: HBV DNA Quantification Assay
A HepG2 cell line overexpressing the HBV virus attachment receptor sodium-taurocholate cotransporting polypeptide (NTCP) was grown to confluency in DMEM growth medium, Dulbecco's Modified Eagle Medium without sodium pyruvate (Life Technologies, Rockville, Md.) supplemented with 10% FBS (Thermo Scientific, Waltham, Md.), 1% penicillin/streptomycin (Life Technologies, Rockville, Md.) and 2 mM L-glutamine (Life Technologies, Rockville, Md.) in T175 flasks. Cells were infected with HBV AD38 viral particles (Texcell, Frederick, USA) at 4000 genome equivalents per cell. After allowing viral infection to take place for 4 days, the infected cells were harvested from the flasks by trypsinization, washed twice with OptiMEM (Life Technologies, Rockville, Md.) and re-suspended in DMEM containing 2% FBS and 1% DMSO at a density of 0.25E6 cells/ml. Infected cells were seeded on 384 well collagen coated plates (Greiner, Austria) at a density of 20,000 cells/well containing serially diluted compounds of the present disclosure or DMSO (0.5%) in a final volume of 80 μl. The assay plates were incubated for a period of 5 days and the antiviral activity of the test compounds were assayed by detecting the presence of HBV DNA in the culture supernatant using the QuantiGene™ 2.0 nucleic acid quantification kit (Affymetrix, Santa Clara, Calif.).
The culture supernatant was harvested and treated with lysis buffer containing Proteinase K (Affymetrix, Santa Clara, Calif.). The supernatant was incubated with HBV viral DNA specific probes (Affymetrix, Santa Clara, Calif.) for 30 minutes at 55° C. This was followed by addition of 0.2M NaOH for 30 minutes at room temperature to denature the DNA, followed by addition of Neutralization buffer (Affymetrix, Santa Clara, Calif.). The resulting lysed and neutralized supernatant was then added to QuantiGene™ 2.0 384 well plates coated with capture oligonucleotides and incubated overnight at 55° C. The HBV specific probe set consists of Capture Extender oligonucleotides (CE's) and blocking probes. Following the overnight incubation, the wells were incubated for one hour sequentially with a Pre-Amplifier, Amplifier and Labeled probes conjugated to alkaline phosphatase with a wash step between incubations. After the final wash step, the alkaline phosphatase substrate (Luminol APS5) was added and the resulting luminescence signal was read in an EnVision Multilabel Plate Reader (PerkinElmer, Santa Clara, Calif.). The EC50 values were calculated from the fit of the dose—response curves to a four-parameter equation. All EC50 values represent geometric mean values of a minimum of four determinations.

[2] = Hepatic Stability Assay (in vitro half-life method); format: in vitro ADME; parameters: dose or concentration left out as unconfirmed; settings: pooled cryopreserved hepatocytes, 37° C., 1×10^6 cells/mL, 0-6 hours, LC-MS/MS, 39.5 hours is the maximum detectable half life, read-out: t½ (converted)
Summary of the method: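 Pooled cryopreserved hepatocytes (1×10^6 cells/mL) incubated with compound at […] test concentration, 37° C.; samples at 0, 1, 3 and 6 h quantified by LC-MS/MS. Half-life from rate of compound disappearance, scaled to predicted hepatic clearance via well-stirred model.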

Row | Structure (SMILES) | EC50 [1] | half-life [2]
1 | CC(C)(C)NC(=O)C(=O)c1c(Cl)c(C(=O)Nc2ccc(F)c(C#N)c2)n2c1CCC2 [Example 1, 7-(2-(tert-Butylamino)-2-oxoacetyl)-6-chloro-N-(3-cyano-4-fluorophenyl)-2,3-dihydro-1H-pyrrolizine-5-carboxamide] | 27.1 nM | 
2 | Cc1c(C(=O)C(=O)NC2(c3c[nH]nn3)CC2)c2n(c1C(=O)Nc1ccc(F)c(Cl)c1)CCC2 [Example 6, 7-(2-((1-(1H-1,2,3-Triazol-4-yl)cyclopropyl)amino)-2-oxoacetyl)-N-(3-chloro-4-fluorophenyl)-6-methyl-2,3-dihydro-1H-pyrrolizine-5-carboxamide] | 11.1 nM | 8.2 h
3 | Cc1c(C(=O)C(=O)NC2(C(F)(F)F)COC2)c2n(c1C(=O)Nc1ccc(F)c(Cl)c1)CCC2 [Example 7, N-(3-chloro-4-fluorophenyl)-6-methyl-7-(2-oxo-2-((3-(trifluoromethyl)oxetan-3-yl)amino)acetyl)-2,3-dihydro-1H-pyrrolizine-5-carboxamide] | 5.8 nM | 4.8 h
4 | Cc1c(C(=O)C(=O)NC2(CNC3(C)CS(=O)(=O)C3)CC(F)(F)C2)c2n(c1C(=O)Nc1ccc(F)c(Cl)c1)CCC2 [Example 8, N-(3-chloro-4-fluorophenyl)-7-(2-((3,3-difluoro-1-(((3-methyl-1,1-dioxidothietan-3-yl)amino)methyl)cyclobutyl)amino)-2-oxoacetyl)-6-methyl-2,3-dihydro-1H-pyrrolizine-5-carboxamide] | 72 nM | 0.4 h
5 | Cc1c(C(=O)C(=O)NC2(C(=O)NC3(C)CS(=O)(=O)C3)CC(F)(F)C2)c2n(c1C(=O)Nc1ccc(F)c(Cl)c1)CCC2 [Example 9, N-(3-chloro-4-fluorophenyl)-7-(2-((3,3-difluoro-1-((3-methyl-1,1-dioxidothietan-3-yl)carbamoyl)cyclobutyl)amino)-2-oxoacetyl)-6-methyl-2,3-dihydro-1H-pyrrolizine-5-carboxamide] | 103 nM | 11.7 h
6 | Cc1c(C(=O)C(=O)NC2(C(=O)N3CCC34COC4)CC(F)(F)C2)c2n(c1C(=O)Nc1ccc(F)c(Cl)c1)CCC2 [Example 11, N-(3-chloro-4-fluorophenyl)-7-(2-((3,3-difluoro-1-(6-oxa-1-azaspiro[3.3]heptane-1-carbonyl)cyclobutyl)amino)-2-oxoacetyl)-6-methyl-2,3-dihydro-1H-pyrrolizine-5-carboxamide] | 7.7 nM | 0.7 h
7 | Cc1c(C(=O)C(=O)NC2(c3nncs3)CC2)c2n(c1C(=O)Nc1ccc(F)c(Cl)c1)CCC2 [Example 12, 7-(2-((1-(1,3,4-thiadiazol-2-yl)cyclopropyl)amino)-2-oxoacetyl)-N-(3-chloro-4-fluorophenyl)-6-methyl-2,3-dihydro-1H-pyrrolizine-5-carboxamide] | 5 nM | 6.4 h
8 | Cc1c(C(=O)C(=O)NC2(C(=O)N3CC4(C3)CS(=O)(=O)C4)CC(F)(F)C2)c2n(c1C(=O)Nc1ccc(F)c(Cl)c1)CCC2 [Example 13, N-(3-chloro-4-fluorophenyl)-7-(2-((1-(2,2-dioxido-2-thia-6-azaspiro[3.3]heptane-6-carbonyl)-3,3-difluorocyclobutyl)amino)-2-oxoacetyl)-6-methyl-2,3-dihydro-1H-pyrrolizine-5-carboxamide] | 252 nM | 16.4 h
9 | Cc1c(C(=O)C(=O)NC2(C(=O)N3CC(F)C3)CC(F)(F)C2)c2n(c1C(=O)Nc1ccc(F)c(Cl)c1)CCC2 [Example 14, N-(3-chloro-4-fluorophenyl)-7-(2-((3,3-difluoro-1-(3-fluoroazetidine-1-carbonyl)cyclobutyl)amino)-2-oxoacetyl)-6-methyl-2,3-dihydro-1H-pyrrolizine-5-carboxamide] | 8.8 nM | 2.1 h
10 | CNC(=O)C1(NC(=O)C(=O)c2c(C)c(C(=O)Nc3ccc(F)c(Cl)c3)n3c2C[C@@H](O)C3)CC(F)(F)C1 [Example 16, (R)—N-(3-chloro-4-fluorophenyl)-7-(2-((3,3-difluoro-1-(methylcarbamoyl)cyclobutyl)amino)-2-oxoacetyl)-2-hydroxy-6-methyl-2,3-dihydro-1H-pyrrolizine-5-carboxamide] | 456 nM | 11.8 h
11 | CNC(=O)C1(NC(=O)C(=O)c2c(C)c(C(=O)Nc3ccc(F)c(C#N)c3)n3c2CCC3C)CC(F)(F)C1 (stereo not drawn) [Example 19, N-(3-cyano-4-fluorophenyl)-7-(2-((3,3-difluoro-1-(methylcarbamoyl)cyclobutyl)amino)-2-oxoacetyl)-3,6-dimethyl-2,3-dihydro-1H-pyrrolizine-5-carboxamide] | 167 nM | 18.3 h
12 | Cc1c(C(=O)C(=O)NC2(C)CS(=O)(=O)C2)c2n(c1C(=O)Nc1ccc(F)c(Cl)c1)CCC2 [Example 21, N-(3-chloro-4-fluorophenyl)-6-methyl-7-(2-((3-methyl-1,1-dioxidothietan-3-yl)amino)-2-oxoacetyl)-2,3-dihydro-1H-pyrrolizine-5-carboxamide] | 20.1 nM | 17.1 h
13 | Cc1c(C(=O)C(=O)NC2(C(=O)N3CC4(COC4)C3)CC(F)(F)C2)c2n(c1C(=O)Nc1ccc(F)c(Cl)c1)CCC2 [Example 27, N-(3-chloro-4-fluorophenyl)-7-(2-((3,3-difluoro-1-(2-oxa-6-azaspiro[3.3]heptane-6-carbonyl)cyclobutyl)amino)-2-oxoacetyl)-6-methyl-2,3-dihydro-1H-pyrrolizine-5-carboxamide] | 32.3 nM | 0.9 h
14 | Cc1c(C(=O)C(=O)NC2(C(=O)N3CC4(C3)CN(S(C)(=O)=O)C4)CC(F)(F)C2)c2n(c1C(=O)Nc1ccc(F)c(Cl)c1)CCC2 [Example 28, N-(3-chloro-4-fluorophenyl)-7-(2-((3,3-difluoro-1-(6-(methylsulfonyl)-2,6-diazaspiro[3.3]heptane-2-carbonyl)cyclobutyl)amino)-2-oxoacetyl)-6-methyl-2,3-dihydro-1H-pyrrolizine-5-carboxamide] | 112 nM | 11.8 h
15 | Cc1c(C(=O)C(=O)NC2(c3ccccc3)CC2)c2n(c1C(=O)Nc1cc(F)c(F)c(F)c1)CCC2 [Example 67, 6-methyl-7-(2-oxo-2-((1-phenylcyclopropyl)amino)acetyl)-N-(3,4,5-trifluorophenyl)-2,3-dihydro-1H-pyrrolizine-5-carboxamide] | 6.5 nM | 
16 | CNC(=O)C(C)(C)NC(=O)C(=O)c1c(C)c(C(=O)Nc2ccc(F)c(Cl)c2)n2c1CCC2 [Example 82, N-(3-chloro-4-fluorophenyl)-6-methyl-7-(2-((2-methyl-1-(methylamino)-1-oxopropan-2-yl)amino)-2-oxoacetyl)-2,3-dihydro-1H-pyrrolizine-5-carboxamide] | 133 nM | 
17 | Cc1c(C(=O)C(=O)NC2(c3cnn[nH]3)CC2)c2n(c1C(=O)Nc1cccc(OC(F)(F)F)c1)CCC2 [Example 85, 7-(2-((1-(1H-1,2,3-triazol-5-yl)cyclopropyl)amino)-2-oxoacetyl)-6-methyl-N-(3-(trifluoromethoxy)phenyl)-2,3-dihydro-1H-pyrrolizine-5-carboxamide] | 294 nM | 
18 | Cc1c(C(=O)C(=O)NC23CC(C(N)=O)(C2)C3)c2n(c1C(=O)Nc1ccc(F)c(Cl)c1)CCC2 [Example 106, 7-(2-((3-carbamoylbicyclo[1.1.1]pentan-1-yl)amino)-2-oxoacetyl)-N-(3-chloro-4-fluorophenyl)-6-methyl-2,3-dihydro-1H-pyrrolizine-5-carboxamide] | 124 nM | 
19 | CNC(=O)C(C)(C)NC(=O)C(=O)c1c(C)c(C(=O)Nc2ccc(F)c(C(F)F)c2)n2c1CCC2 [Example 114, N-(3-(difluoromethyl)-4-fluorophenyl)-6-methyl-7-(2-((2-methyl-1-(methylamino)-1-oxopropan-2-yl)amino)-2-oxoacetyl)-2,3-dihydro-1H-pyrrolizine-5-carboxamide] | 156 nM | 
20 | CNC(=O)[C@@H](NC(=O)C(=O)c1c(C)c(C(=O)Nc2ccc(F)c(Cl)c2)n2c1CCC2)C(C)C [Example 128, (S)—N-(3-chloro-4-fluorophenyl)-6-methyl-7-(2-((3-methyl-1-(methylamino)-1-oxobutan-2-yl)amino)-2-oxoacetyl)-2,3-dihydro-1H-pyrrolizine-5-carboxamide] | 170 nM | 

— US10328053B2 (Gilead Sciences, Inc., priority 2016, dated 2019)
